Test results taken from US20240083888A1, “SMALL MOLECULE INHIBITOR FOR CATHEPSIN C AND MEDICINAL USE THEREOF” (REISTONE BIOPHARMA COMPANY LIMITED, priority 2020, published 2024).

Key:
[1] = Pharmacokinetic experiment in BALB/c mice; assay type: in vivo; conditions: for AUC(0-t) / clearance / half-life / Vd / Tmax / bioavailability: male, mouse, plasma; for Vd: read-out: Vdss
Protocol: BALB/c mice (male, 20 to 30 g, fasting)
Pharmacokinetic characteristics of the compounds in rodent after intravenous or oral administration were determined by standard protocols. In the experiment, the compound was formulated into a clear solution, and administered to mice by single intravenous injection or oral administration. The intravenous injection vehicle was a mixed vehicle of 500 dimethyl sulfoxide and 9500 (3000 aqueous sulfobutylether cyclodextrin solution). The oral vehicle is a solution of 0.50% hydroxypropylmethylcellulose and 0.10% polysorbate 80 in water. Whole blood samples within 24 hours were collected, and the supernatants were separated to obtain plasma samples. Quantitative analysis of plasma concentration was carried out by LC-MS/MS analysis method, and the pharmacokinetic parameters, such as peak concentration (Cmax), clearance (Cl), half-life (T1/2), volume of distribution (Vdss) and area under the drug-time curve (AUC), were calculated.

[2] = Pharmacokinetic experiment in beagle dogs; assay type: in vivo; design: clearance: unit not given here; conditions: for Vd: read-out: Vdss
Protocol: Beagle dogs (male, 9 to 11 kg)
Pharmacokinetic characteristics of the compounds in beagle dogs after intravenous or oral administration were determined by standard protocols. In the experiment, the compound was formulated into a clear solution, and administered to beagle dogs by single intravenous injection or oral administration. The intravenous injection vehicle was a mixed vehicle of 5% dimethyl sulfoxide and 95% (28% aqueous hydroxypropyl beta cyclodextrin solution). The oral vehicle is a solution of 0.5% hydroxypropylmethylcellulose and 0.1% polysorbate 80 in water. Whole blood samples within 24 hours were collected, and the supernatants were separated to obtain plasma samples. The sample was centrifuged to obtain the supernatant, to which an equal volume of water was added. The resulting solution was centrifuged to obtain the supernatant, which was injected into the analysis machine. Quantitative analysis of plasma concentration was carried out by LC-MS/MS analysis method, and the pharmacokinetic parameters, such as peak concentration (Cmax), clearance (Cl), half-life (T1/2), volume of distribution (Vdss) and area under the drug-time curve (AUC), were calculated.

[3] = target: rhCatC (Homo sapiens (Human), UniProt P53634); assay: In vitro enzyme activity experiment of rhCatC (AMC fluorescence assay); assay type: biochemical; conditions: rhCatC enzyme, substrate H-Gly-Arg-AMC; read-out: Biological activity IC50
Protocol: The in vitro inhibitory effect of compounds and positive control on rhCatC enzyme activity was evaluated by AMC fluorescence assay. rhCatC can catalyze the reaction of substrate peptide H-Gly-Arg-AMC, and release AMC to generate fluorescence. […] The compound was diluted with DMSO to a 384-well echo plate at a concentration of 100× of the highest concentration at the beginning of the experiment. 0.2 μL of the diluted compound was pipetted to a black-bottomed 384-well reaction plate for later use. The negative control well was DMSO. • 2) Activation of rhCatC: RhCatC and rhCatL were added to the activation buffer to obtain a final concentration of rhCatC of 100 μg/mL and a final concentration of rhCatL of 20 μg/mL, and incubated at room temperature for 1 hour. • 3) Enzyme activity reaction: Activated rhCatC was diluted to 0.4 μg/mL with the reaction buffer. The solution was added to the black-bottom 384-well reaction plate ([…]). 10 μL of the buffer was added for the vehicle control group. The plate containing compounds in its wells was incubated at room temperature for 30 minutes.
The RLU data was read, the inhibition rate was calculated, and the IC50 value was calculated according to the fitting curve of concentration and inhibition rate.

[4] = target: CatC (Homo sapiens (Human), UniProt P53634); assay: In vitro CatC cell activity experiment in U937 cell line; assay type: cell-based
Protocol: The U937 cell line was resuscitated and passed for about two generations, and the cell line with good growth status was selected. The cell suspension was transferred into a centrifuge tube, and centrifuged at 800 to 1000 rpm for 3 to 5 minutes. The supernatant was discarded. An appropriate volume of culture medium was added to the centrifuge tube, which was gently pipetted to resuspend the cells evenly. The cells were counted using a Vi-Cell XR cell counter. The cell suspension was adjusted to an appropriate concentration. The cell suspension was added into a 384-well plate ([…]). The compound was formulated into a 10 mM solution with DMSO. The compound was diluted with DMSO to obtain a 1 mM solution, and a semi-logarithmi dilution was carried out by HPD300 with DMSO to obtain 10 concentrations. Gly-Phe-AFC was formulated into a 35 mM solution with DMSO and divided. […] After adding the compounds and incubating for 1 hour in an incubator, substrate-AFC was added (12.5 μL was added to the plate). The plate was incubated for 30 minutes and read. […] XLFit was used to draw the drug efficacy inhibition rate curve and calculate the IC50 value. 4-parameter model [fit=(A+((B−A)/(1+((C/x)^D))))] was used.

[5] = tested on: neutrophil elastase (NE) downstream of CatC; assay: Target binding model in C57BL/6 mice: NE protease activity in bone marrow; assay type: in vivo; conditions: 3 mg/kg PO, 8 days, bone marrow cell lysate, female C57BL/6 mice
Protocol: 1. Experimental protocol: In order to investigate the inhibitory effect of the compounds on the activity of neutrophil elastase (hereinafter referred to as NE) downstream of CatC in neutrophil, female C57BL/6 mice were administered according to the following table:
2. Experimental procedures: The compound or vehicle control was administered continuously for 8 days. On Day 1 to 7, the compound or vehicle control was administered twice a day with an administration interval of 6 hours. On Day 8, the test material was collected one hour after the first administration. […] The sample was washed once with Dulbecco's phosphate buffer, centrifuged at 400 g for 5 minutes and counted. […] The supernatant was stored at −80° C. until protease activity was determined. The protease activity in the cell lysates of each group was determined using the NE protease activity detection kit (Sigma-Aldrich MAK246). 7.5 μL of 3× diluted bone marrow cell lysate or 7.5 μL of double-diluted NE standard and 7.5 μL of 25× diluted substrate were added to a 384-well plate, and the NE protease activity was immediately monitored in real-time at Ex 380 nm and Em 500 nm for 30 minutes. The RFU within the linear reaction time was determined, and the NE protease activity (ng/ml) in the sample was calibrated by the standard curve.

Chain of rhCatC (P53634 25-134): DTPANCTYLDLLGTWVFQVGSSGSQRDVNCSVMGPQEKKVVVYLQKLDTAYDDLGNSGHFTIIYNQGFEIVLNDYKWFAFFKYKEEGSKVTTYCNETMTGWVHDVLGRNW
Chain of rhCatC (P53634 231-394): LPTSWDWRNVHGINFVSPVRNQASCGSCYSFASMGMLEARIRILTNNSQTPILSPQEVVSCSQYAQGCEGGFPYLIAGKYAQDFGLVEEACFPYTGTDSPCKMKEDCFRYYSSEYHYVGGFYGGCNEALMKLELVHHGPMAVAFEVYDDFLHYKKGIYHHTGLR
Chain of rhCatC (P53634 395-463): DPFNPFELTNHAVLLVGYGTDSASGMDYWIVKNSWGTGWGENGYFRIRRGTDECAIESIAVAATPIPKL
Chain of CatC (P53634 25-134): as the sequence (P53634 25-134) above
Chain of CatC (P53634 231-394): as the sequence (P53634 231-394) above
Chain of CatC (P53634 395-463): as the sequence (P53634 395-463) above

SMILES	AUC(0-t) ([1]; IV, 2 mg/kg)	clearance ([1]; IV, 2 mg/kg)	half-life ([1]; IV, 2 mg/kg)	Vd ([1]; IV, 2 mg/kg)	AUC(0-t) ([1]; PO, 5 mg/kg)	Tmax ([1]; PO, 5 mg/kg)	bioavailability ([1]; PO, 5 mg/kg)	half-life ([1]; PO, 5 mg/kg)	AUC(0-t) ([2]; male, dog, plasma, IV, 1 mg/kg)	half-life ([2]; male, dog, plasma, IV, 1 mg/kg)	Vd ([2]; male, dog, plasma, IV, 1 mg/kg)	AUC(0-t) ([2]; male, dog, plasma, PO, 2 mg/kg)	Tmax ([2]; male, dog, plasma, PO, 2 mg/kg)	bioavailability ([2]; male, dog, plasma, PO, 2 mg/kg)	half-life ([2]; male, dog, plasma, PO, 2 mg/kg)	IC50 [3]	IC50 [4]	inhibitory rate of NE protease activity compared with AZD7986 [5]	further results
Cn1c(=O)oc2ccc(-c3ccc(C[C@@H](C#N)NC(=O)[C@@H]4CNCCCO4)cc3)cc21 [AZD7986, reference compound]	2120 ng·h/mL	15.1 mL/min/kg	2.74 h	2.34 L/kg	2130 ng·h/mL	1.5 h	40.2%	3.18 h	1410 ng·h/mL	13.5 h	9.26 L/kg	3670 ng·h/mL	1.67 h	104%	15.3 h	–	–	–	–
N#Cc1ccc2c(c1)COc1cc(C[C@@H](C#N)NC(=O)[C@@H]3CNCCCO3)c(F)cc1-2 [Compound 14, (S)—N—((S)-1-Cyano-2-(8-cyano-2-fluoro-6H-benzo[c]chromen-3-yl)ethyl)-1,4-oxazepane-2-carboxamide]	3770 ng·h/mL	8.49 mL/min/kg	3.08 h	1.75 L/kg	6610 ng·h/mL	0.5 h	65.3%	2.69 h	4790 ng·h/mL	10.2 h	2.29 L/kg	10900 ng·h/mL	3.33 h	100%	12.3 h	5.31 nM	6.1 nM	higher inhibitory rate of NE protease activity than the reference compound AZD7986	PK properties compared with AZD7986 [1]: better PK properties than AZD7986; oral bioavailability compared with AZD7986 [1]: increased; decrease of clearance rate compared with AZD7986 ([1]; IV): about 1.8 times; increase of intravenous exposure compared with AZD7986 ([1]; IV): 1.8 times; increase of oral exposure compared with AZD7986 ([1]; PO): 3.1 times; PK properties compared with AZD7986 [2]: better PK properties than AZD7986; decrease of clearance rate compared with AZD7986 ([2]; IV): about 3 times; increase of intravenous exposure compared with AZD7986 ([2]; IV): 3.4 times; increase of oral exposure compared with AZD7986 ([2]; PO): 3.0 times; clearance ([2]; male, dog, plasma, IV, 1 mg/kg): 0.172
N#Cc1ccc2c(c1)-c1cc(F)c(C[C@@H](C#N)NC(=O)[C@@H]3CNCCCO3)cc1OC2 [Compound 32, (S)—N—((S)-1-Cyano-2-(9-cyano-2-fluoro-6H-benzo[c]chromen-3-yl)ethyl)-1,4-oxazepane-2-carboxamide]	–	–	–	–	–	–	–	–	–	–	–	–	–	–	–	13 nM	7 nM	higher inhibitory rate of NE protease activity than the reference compound AZD7986	–
